Test results published in patent US20110028458A1, “INHIBITION OF CELL MIGRATION BY A FARNESYLATED DIBENZODIAZEPINONE” (THALLION PHARMACEUTICALS INC., priority 2008, published 2011).

Assays:
[1] = tested on: SRBC; test: Hemolysis of SRBC; assay type: cell-based
[2] = tested on: HT-29 (colorectal carcinoma); test: In vitro cytotoxic activity, propidium iodide, HT-29; assay type: cell-based, human
[3] = tested on: PC-3 (prostate adenocarcinoma); test: In vitro cytotoxic activity, propidium iodide, PC-3; assay type: cell-based, human; conditions: 96 hrs
[4] = tested on: MDA-MB-231 (mammary gland adenocarcinoma); test: In vitro cytotoxic activity, propidium iodide, MDA-MB-231; assay type: cell-based, human; conditions: 96 hrs
[5] = tested on: central benzodiazepine receptor (CBR; GABAA); test: CBR (GABAA) radioligand binding assay, [3H]flunitrazepam, rat brain; conditions: 10 μM
Source text: (§1) The procedures used were based on known assays: ACAT (from rat; Ref: Largis et al (1989), J. Lipid. Res., vol 30, 681-689), COX-2 (human; Ref: Riendeau et al (1997), Can. J. Physiol. Pharmacol., vol 75, 1088-1095 and Warner et al (1999), Pro. Natl. Acad Sci. USA, vol 96, 7563-7568), 5-LO (human; Ref: Carter et al (1991), J. Pharmacol. Exp. Ther., vol 256, no 3, 929-937, and Safayhi et al (2000), Planta Medica, vol 66, 110-113), PBR (from rat; Le Fur et al (1983), Life Sci. USA, vol 33, 449-457), CysLT1 (human; Martin et al (2001), Biochem. Pharmacol., vol 62, no 9, 1193-1200) and CBR (from rat; Damm et al (1978), Res. Comm. Chem. Pathol. Pharmacol., vol 22, 597-600 and Speth et al (1979), Life Sci., vol 24, 351-357).
(§2) Binding Assays were done at constant concentration of the compound, in 1% DMSO as vehicle, and are specified below each enzyme/receptor type in Table 3. Significance was obtained when a result was ≧50% binding or inhibition (underlined).
As Compound 1 was isolated from structural prediction through genetic analysis and activity identified through in vitro cytotoxic assays, its molecular target(s) were unknown at the time of discovery. Based on the structural characteristics of TLN-4601, we first investigated its binding affinity to the central (GABAA; CBR;) and peripheral (PBR) benzodiazepine receptors. The effect of TLN-4601 on CBR (GABAA) and PBR was initially evaluated in a radioligand-binding assay at MDS Pharma Services (Taipei, Tawain). CBR and PBR were obtained from rat brain and heart membrane-fractions, respectively. Displacement assays were done in the presence of 1 nM [^3H]-Flunitrazepam (CBR; GABAA) or 0.3 nM of [^3H]-PK11195 (PBR). TLN-4601 was tested at 0.01, 0.1, 0.5, 1, 5 and 10 μM. Non-specific binding was estimated in the presence of 10 μM diazepam (CBR) or 100 μM dipyrimadole (PBR) and assays were performed according to previous described methods (Damm et al Res Commun Chem Pathol Pharmacol 22, pp 597-600; Le Fur et al (1983) Life Science 33, pp 449-57). […] This contrats with current specific PBR ligands, which bind the PBR with nanomolar affinity yet their effect on cell proliferation, is in the micromolar range.

[6] = tested on: SF268 (CNS); test: In vitro cytotoxic activity, propidium iodide, SF-268; assay type: cell-based, human; conditions: 96 hrs
[7] = tested on: ACAT; test: ACAT enzyme assay, [14C]cholesterol ester quantitation; assay type: biochemical, rat; conditions: 10 μM
Source text: as §1
Binding assays were done for each of Compounds 1-12 and 46 using ACAT, COX-2, 5-LO, PBR and CysLT1 enzymes. The procedures used are based on the respective references mentioned above and the conditions are summarized in Tables 1 (enzyme assays) and 2 (radioligand receptor assays).
as §2

| Structure (SMILES) | Hemolysis ED50 (concentration necessary to achieve 50% hemolysis of SRBC) [1] [µg/mL] | GI50 ([2]; Homo sapiens, HT-29, 96 h) [µM] | GI50 [3] [µM] | GI50 [4] [µM] | Percentage of inhibition or binding activity, CBR [5] [%] | GI50 [6] [µM] | GI50 ([2]; 96 hrs) [µM] | Percentage of inhibition or binding activity, ACAT [7] [%] |
| --- | --- | --- | --- | --- | --- | --- | --- | --- |
| COC(C)(C)CCC/C(C)=C/CC/C(C)=C/CN1C(=O)c2cccc(O)c2Nc2c(O)cc(O)cc21 [Compound 82] | >64 |  |  |  |  |  |  |  |
| CC(=O)NC(C)(CCC=C(C)C)CCC/C(C)=C/CN1C(=O)c2cccc(O)c2Nc2c(O)cc(O)cc21 (stereo not drawn) [Compound 92] | >64 | > 30 |  |  |  |  |  |  |
| CC(=O)Oc1cc(OC(C)=O)c2c(c1)N(CC=C(C)CCC=C(C)CCC=C(C)C)C(=O)c1cccc(O)c1N2 [Compound 9] | >64 |  | 1.44 | 2.48 | 10 | 1.88 | 12.6 | 77 |
| CC(=O)Oc1cc(O)c2c(c1)N(CC=C(C)CCC=C(C)CCC=C(C)C)C(=O)c1cccc(OC(C)=O)c1N2 [Compound 11] | 9.8 |  | 5.35 | 7.72 | 20 | 5.79 | 16 | 71 |
| CC(C)CCCC(C)CCCC(C)CCN1C(=O)c2cccc(O)c2N(C)c2c(O)cc(O)cc21 (stereo not drawn) [Compound 78] | 9.89 |  |  |  |  |  |  |  |
| CCN1c2c(O)cccc2C(=O)N(C/C=C(\C)CC/C=C(\C)CCC=C(C)C)c2cc(O)cc(O)c21 [Compound 14] | 43.9 |  | 1.15 | 2.16 |  | 0.76 | 2.04 |  |
| COc1cc(OC)c2c(c1)N(CC=C(C)CCC=C(C)CCC=C(C)C)C(=O)c1cccc(OC)c1N2 [Compound 8] |  |  |  |  | 1 |  |  | 40 |
| CCN1c2c(O)cccc2C(=O)N(C/C=C(\C)CC/C=C(\C)CCCC(C)(C)OC)c2cc(O)cc(O)c21 [Compound 85] | >64 |  |  |  |  |  |  |  |
| COc1cccc2c1Nc1c(OC)cc(O)cc1N(CC=C(C)CCC=C(C)CCC=C(C)C)C2=O [Compound 7] | >64 |  | 14.6 | 17.4 | 21 | 18.5 | 14.1 | 95 |
| CCCN1c2c(O)cccc2C(=O)N(C/C=C(\C)CC/C=C(\C)CCC=C(C)C)c2cc(O)cc(O)c21 [Compound 63] | >64 |  |  |  |  |  |  |  |
| [2H]C([2H])([2H])N1c2c(O)cccc2C(=O)N(C/C=C(\C)CC/C=C(\C)CCC=C(C)C)c2cc(O)cc(O)c21 [Compound 98] | 4.5 |  |  |  |  |  |  |  |
| CCC(C)N1c2c(O)cccc2C(=O)N(C/C=C(\C)CC/C=C(\C)CCC=C(C)C)c2cc(O)cc(O)c21 (stereo not drawn) [Compound 77] | 60.9 |  |  |  |  |  |  |  |
| CCCCCCN1c2c(O)cccc2C(=O)N(C/C=C(\C)CC/C=C(\C)CCC=C(C)C)c2cc(O)cc(O)c21 [Compound 67] | >64 |  |  |  |  |  |  |  |
| COC(C)(CCC=C(C)C)CCC/C(C)=C/CN1C(=O)c2cccc(O)c2Nc2c(O)cc(O)cc21 (stereo not drawn) [Compound 83] | 12.4 |  |  |  |  |  |  |  |
| CC(C)=CCC/C(C)=C/CC/C(C)=C/CN1C(=O)c2cccc(O)c2N(C)c2c(O)cc(O)cc21 [Compound 2] | 5.12 |  |  |  | 22 |  |  | 51 |
| COc1cccc2c1Nc1c(O)cc(O)cc1N(C/C=C(\C)CC/C=C(\C)CCC=C(C)C)C2=O [Compound 4] | >64 |  |  |  | 12 |  |  |  |
| CC(C)=CCC/C(C)=C/CC/C(C)=C/CN1C(=O)c2cccc(O)c2N(C)c2c(O)cc(O)cc21 [Compound 98] |  |  | 0.82 | 0.51 |  | 0.16 | 0.69 |  |
| CCCCN1c2c(O)cccc2C(=O)N(C/C=C(\C)CC/C=C(\C)CCC=C(C)C)c2cc(O)cc(O)c21 [Compound 64] | >64 |  |  |  |  |  |  |  |
| CC(C)=CCC/C(C)=C/CC/C(C)=C/CN1C(=O)c2cccc(O)c2N(Cc2ccccc2)c2c(O)cc(O)cc21 [Compound 3] | >64 |  |  |  | 10 |  |  | 63 |
| COc1cc(O)cc2c1Nc1c(O)cccc1C(=O)N2C/C=C(\C)CC/C=C(\C)CCC=C(C)C [Compound 5] | >64 |  |  |  | 21 |  |  | 60 |
| COC(C)(CCC=C(C)C)CCC/C(C)=C/CN1C(=O)c2cccc(O)c2N(C)c2c(O)cc(O)cc21 (stereo not drawn) [Compound 80] | >64 |  |  |  |  |  |  |  |
| CCN1c2c(O)cccc2C(=O)N(CC=C(C)CCCC(C)(CCCC(C)(C)OC)OC)c2cc(O)cc(O)c21 (stereo not drawn) [Compound 87] | >64 |  | 1.39 | 2.4 |  | 0.91 | 1.83 |  |
| COc1cc(OC)c2c(c1)N(C/C=C(\C)CC/C=C(\C)CCC=C(C)C)C(=O)c1cccc(O)c1N2 [Compound 6] | >64 | > 30 |  |  | 14 |  |  |  |
| C/C(=C\CN1C(=O)c2cccc(O)c2Nc2c(O)cc(O)cc21)CC/C=C(\C)CCC1OC1(C)C (stereo not drawn) [Compound 18] | >64 |  | > 30 | > 30 |  | 7.45 | > 30 |  |
| CC(C)=CCCC(C)(O)CCC/C(C)=C/CN1C(=O)c2cccc(O)c2Nc2c(O)cc(O)cc21 (stereo not drawn) [Compound 89] | >64 | > 30 |  |  |  |  |  |  |
| COC(C)(C)CCCC(C)(CCC/C(C)=C/CN1C(=O)c2cccc(O)c2Nc2c(O)cc(O)cc21)OC (stereo not drawn) [Compound 84] | >32 |  |  |  |  |  |  |  |
| CC(C)CCCC(C)CCCC(C)CCN1C(=O)c2cccc(O)c2Nc2c(O)cc(O)cc21 (stereo not drawn) [Compound 46] | 13.9 |  |  |  | 27 |  |  | 8 |
| CC(=O)Oc1cc(OC(C)=O)c2c(c1)N(CC=C(C)CCC=C(C)CCC=C(C)C)C(=O)c1cccc(OC(C)=O)c1N2 [Compound 12] | >64 |  | 1.2 | 2.79 | −24 | 1.95 | 9.33 | 83 |
| CC(C)=CCCC1(C)OC1CC/C(C)=C/CN1C(=O)c2cccc(O)c2Nc2c(O)cc(O)cc21 (stereo not drawn) [Compound 17] | 35.0 |  | 18.7 | > 30 |  | 13.4 | > 30 |  |
| CC(=O)Oc1cccc2c1Nc1c(OC(C)=O)cc(O)cc1N(CC=C(C)CCC=C(C)CCC=C(C)C)C2=O [Compound 10] | >64 |  | 1.35 | 1.55 | 5 | 2.02 | 13 | 90 |
